Test results: PMC3922157 (Journal of Antimicrobial Chemotherapy, 2013)
Where two headings read alike, the source gives them in different places.

Assays:
[1] = test system: bloodstream-form T. b. brucei; experiment: Alamar blue drug susceptibility assay, bloodstream-form trypanosomes; assay type: cell-based; details: for Increase in susceptibility on expression of TbAT1: TbAT1 expressed in B48 (Figure S6); for EC50: Trypanosoma brucei
Procedure: (§1) Drug susceptibilities of the bloodstream-form trypanosomes[47] and L. mexicana promastigotes[48] were determined using the Alamar blue assay exactly as described previously, measuring fluorescence in 96-well plates with a FLUOstar Optima (BMG Labtech, Durham, NC, USA) at wavelengths of 544 nm for excitation and 620 nm for emission. EC50 values were calculated by non-linear regression using an equation for a sigmoidal dose–response curve with variable slope (GraphPad Prism 5.0; GraphPad Software Inc., San Diego, CA, USA).

[2] = test system: procyclic T. b. gambiense 386MR; assay type: cell-based
[3] = test system: procyclic T. b. brucei 247MR; assay type: cell-based
[4] = test system: Leishmania mexicana promastigotes; experiment: Alamar blue drug susceptibility assay, L. mexicana promastigotes expressing T. brucei aquaporins; assay type: cell-based; details: for Sensitization by expression of TbAQP2: L. mexicana promastigotes expressing TbAQP2 vs empty-vector control
Procedure: as §1
TbAQP2 and TbAQP3 were amplified from genomic DNA by PCR using Phusion polymerase (Thermo Scientific) and subcloned into the pNUS vector for expression in Leishmania.[49] The construct was verified by sequencing before transfection into L. mexicana promastigotes using an Amaxa Nucleofector (program U-33).

TbAQP2 [5] = molecular target: T1, TbAQP2 (Trypanosoma brucei brucei, UniProt Q6ZXT3); experiment: cell-based
TbAQP3 = molecular target: T2, TbAQP3 (Trypanosoma brucei brucei, UniProt Q6ZXT2); assay type: cell-based, T. b. brucei; details: 100 nM [3H]pentamidine over 5 min; TbAQP3-transfected promastigotes
T2 construct: expressed in transfected cells; host or cells: Leishmania mexicana promastigotes, pNUS vector

HAPT1 [6] = molecular target: T3, HAPT1 (Trypanosoma brucei brucei, UniProt Q6ZXT3); experiment: cell-based; assay type: cell-based, T. b. brucei
LAPT1 [7] = details: 1 μM [3H]pentamidine; for Km: read-out: LAPT1 Km
LAPT1 [8] = details: cited from earlier work
T. b. rhodesiense = details: cited from earlier work; further: key: highly sensitive (+++); ++: indicated on a relative scale; +: indicated on a relative scale; +/−: indicated on a relative scale; −: indicated on a relative scale; highly resistant to pentamidine or melaminophenyl arsenicals (−−−)
TbAQP2 [9] = molecular target: T1, TbAQP2
T. b. gambiense = details: cited from earlier work
LAPT1 [10] = experiment: [3H]pentamidine low-affinity transport, bloodstream forms; assay type: cell-based, T. b. brucei; details: for Km: read-out: LAPT1 pentamidine Km
T. b. brucei 247MR = test system: T. b. brucei 247MR; design: method as in PMID 9225768; details: cited from earlier work
[11] = test system: bloodstream-form T. b. brucei; details: cited from earlier work
HAPT1 [12] = molecular target: T3, HAPT1; experiment: cell-based; assay type: cell-based, T. b. gambiense
LAPT1 [13] = details: 1 μM [3H]pentamidine; for Km: read-out: LAPT1 Km; remark: listed apart in the source
HAPT1 [14] = molecular target: T3, HAPT1; experiment: [3H]pentamidine high-affinity transport, bloodstream forms
T. b. brucei = details: cited from earlier work
HAPT1 [15] = molecular target: T3, HAPT1; design: endogenous in cells; host or cells: bloodstream-form T. b. brucei Lister 427 derivatives (s427 WT, TbAT1-KO, 2T1: endogenous AQP2; B48/AQP2: wild-type TbAQP2 from vector pHDK21, derived from pHD1336); details: cited from earlier work
[16] = test system: N=C(N)c1ccc(OCCCCCOc2ccc(C(=N)N)cc2)cc1; experiment: cells, lysate or membranes; details: pH 7.3
[17] = B48 + TbAQP2 vs B48 empty vector (Figure 1)
[18] = P1000 + TbAQP2 vs P1000 empty vector (Figure 1)
Wherever susceptibility is given: key: highly sensitive (+++); ++: indicated on a relative scale; +: indicated on a relative scale; +/−: indicated on a relative scale; −: indicated on a relative scale; highly resistant to pentamidine or melaminophenyl arsenicals (−−−).

T3 sequence (Q6ZXT3 whole entry): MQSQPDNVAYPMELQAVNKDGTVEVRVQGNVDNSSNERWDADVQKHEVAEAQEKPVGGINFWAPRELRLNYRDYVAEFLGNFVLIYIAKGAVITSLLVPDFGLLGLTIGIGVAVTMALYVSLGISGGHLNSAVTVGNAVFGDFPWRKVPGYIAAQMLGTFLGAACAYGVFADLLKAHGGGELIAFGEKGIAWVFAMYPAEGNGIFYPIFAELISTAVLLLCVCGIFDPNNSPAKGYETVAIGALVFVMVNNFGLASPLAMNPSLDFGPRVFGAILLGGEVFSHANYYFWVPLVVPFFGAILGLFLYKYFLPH
T1 sequence (Q6ZXT3 whole entry): as above
T2 sequence (Q6ZXT2 whole entry): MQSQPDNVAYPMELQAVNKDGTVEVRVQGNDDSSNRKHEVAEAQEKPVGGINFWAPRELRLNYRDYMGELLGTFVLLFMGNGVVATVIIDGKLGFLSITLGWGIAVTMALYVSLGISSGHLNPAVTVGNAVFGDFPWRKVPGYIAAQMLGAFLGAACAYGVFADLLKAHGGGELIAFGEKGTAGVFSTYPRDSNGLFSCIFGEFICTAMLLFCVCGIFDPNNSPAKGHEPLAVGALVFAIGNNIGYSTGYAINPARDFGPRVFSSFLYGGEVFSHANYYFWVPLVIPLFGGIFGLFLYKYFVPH

For C[C@H]1O[C@@H](n2cnc3c(N)ncnc32)[C@H](O)[C@@H]1O [5′-deoxyadenosine], the “Increase in susceptibility on expression of TbAT1” value (shortened to “Increase in susceptibility”) ([1]; P < 0.001) was over 20 fold.
For Cl.Cl.NCCS[As](SCCN)c1ccc(Nc2nc(N)nc(N)n2)cc1 [Cymelarsan], the “Reversal of resistance on expression of TbAQP2” value (from here on “Reversal of resistance”) [1, 17] was 16.7 fold, the “Reversal of resistance” value [1, 18] was 15.0 fold and the Difference in susceptibility ([1]; aqp2 null vs aqp2 null expressing WT AQP2, P < 0.001) was 4.1 fold. The Difference in susceptibility ([1]; aqp2 null vs aqp2 null expressing chAQP2/3, P < 0.05) was 1.4 fold, the “Resistance relative to parental line” value [2] was 83 fold and the “Resistance relative to parental line” value [3] was 755 fold.
For C[C@@H]1[C@H](O)[C@@H](C)/C=C/C=C/C=C/C=C/C=C/C=C/C=C/[C@H](O[C@@H]2O[C@H](C)[C@@H](O)[C@H](N)[C@@H]2O)C[C@@H]2O[C@](O)(C[C@@H](O)C[C@@H](O)[C@H](O)CC[C@@H](O)C[C@@H](O)CC(=O)O[C@H]1C)C[C@H](O)[C@H]2C(=O)O [amphotericin B], the “Sensitization by expression of TbAQP2” value [4] was “no statistically significant effect”.
With Nc1ncnc2c1ncn2[C@@H]1O[C@H](CO)C[C@H]1O [cordycepin, 3′-deoxyadenosine] the “Increase in susceptibility” value ([1]; P < 0.001) was over 20 fold.
With N=C(N)c1ccc(/N=N/Nc2ccc(C(=N)N)cc2)cc1 [diminazene] the “Reversal of resistance” value [1, 17] was “not affected”, the “Reversal of resistance” value [1, 18] was “not affected” and the Ki (TbAQP2 [5]) was 100 ± 21 µM. The “Sensitization by expression of TbAQP2” value [4] was “no statistically significant effect”.
In the case of N=C(N)c1ccc(OCCCCCOc2ccc(C(=N)N)cc2)cc1 [pentamidine], the “Uptake of [3H]pentamidine compared with control” value (TbAQP3) is reported as “not significantly different”, the “Reversal of resistance” value [1, 17] is reported as 50 fold and the “Reversal of resistance” value [1, 18] is reported as 240 fold. For the same compound, the EC50 [1] was 0.158 ± 0.002 µM, the EC50 ([1]; aqp2/aqp3 null expressing AQP3^sf2, P < 0.02) was 0.131 ± 0.003 µM and the “HAPT1 Vmax” value (HAPT1 [6]; STIB 247WT procyclics, 25 nM [3H]pentamidine) was 0.008 ± 0.002 pmol/10^7 cells/s. For the same compound, the “LAPT1 Vmax” value (LAPT1 [7]; STIB 386MR procyclics) was 1.2 ± 0.4 pmol/10^7 cells/s, the “LAPT1 Vmax” value (LAPT1 [7]; STIB 386WT procyclics) was 0.70 ± 0.15 pmol/10^7 cells/s and the Km (LAPT1 [7]; STIB 386MR procyclics) was 51 ± 2 µM. For the same compound, the Km (LAPT1 [7]; STIB 386WT procyclics) was 46 ± 9 µM, the Km (LAPT1 [8]; read-out: LAPT1 pentamidine Km, B48 bloodstream forms, ref Bridges et al. 16) was 56 ± 7 µM and the Km (LAPT1 [8]; read-out: LAPT1 pentamidine Km, TbAT1-KO bloodstream forms, ref Matovu et al. 14) was 50 ± 17 µM. The Km (LAPT1 [8]; read-out: LAPT1 pentamidine Km, WT s427 bloodstream forms, ref De Koning 17) was 56 ± 8 µM, the Km (LAPT1 [8]; read-out: published pentamidine Km for LAPT1) was 56.2 ± 8.3 µM and the “Sensitization by expression of TbAQP2” value [4] was 40 fold. For the same compound, the “Sensitization by expression of TbAQP3” value ([4]; L. mexicana promastigotes expressing TbAQP3, two independent clones) was 1.5–2.5 fold, the Susceptibility (T. b. rhodesiense) was “+++ and −” and the “Rate of [3H]pentamidine uptake” value (TbAQP2 [9]; 50 nM [3H]pentamidine in the presence of 1 mM unlabelled pentamidine) was 0.00026 ± 1.8 × 10^−6 pmol/10^7 cells/s. The “Rate of [3H]pentamidine uptake” value (TbAQP2 [9]; 50 nM [3H]pentamidine, over 15 s) was 0.032 ± 0.002 pmol/10^7 cells/s, the “Increase of [3H]pentamidine uptake” value (TbAQP2 [9]; 100 nM [3H]pentamidine over 5 min, TbAQP2-expressing promastigotes vs control) was about 15 fold and the “Resistance relative to parental line” value [2] was 90 fold. The Susceptibility (T. b. gambiense) was “+++ and +/−”, the “Increase of [3H]pentamidine uptake on expression of TbAQP2” value (LAPT1 [10]; 1 μM pentamidine, B48 + TbAQP2 vs B48) was 2.5 fold and the “Uptake of [3H]pentamidine compared with control” value (LAPT1 [10]; 1 μM pentamidine, B48 compared with TbAT1-KO) was “not significantly different”. For the same compound, the IC50 (LAPT1 [10]; read-out: IC50, inhibition of [3H]pentamidine uptake, low-affinity phase, 2T1 control cells, 30 nM [3H]pentamidine, 1 mM adenosine, n = 3) was 29.9 ± 4.3 µM, the IC50 (LAPT1 [10]; read-out: IC50, inhibition of [3H]pentamidine uptake, aqp2 null cells, 30 nM [3H]pentamidine, 1 mM adenosine) was 33.4 ± 9.5 µM and the Km (LAPT1 [10]; B48/AQP2 bloodstream forms) was 66 ± 1 µM. The Km (LAPT1 [10]; P1000 bloodstream forms) was 99 ± 24 µM, the “Pentamidine resistance in vivo relative to parental line” value (T. b. brucei 247MR) was over 50 fold and the “Loss of sensitivity on homozygous deletion of TbAT1” value [11] was 2.5–3 fold. For the same compound, the “HAPT1 Vmax” value (HAPT1 [12]; STIB 386WT procyclics, 25 nM [3H]pentamidine) was 0.007 ± 0.002 pmol/10^7 cells/s, the “LAPT1 Vmax” value (LAPT1 [13]; STIB 247MR procyclics) was 0.41 ± 0.10 pmol/10^7 cells/s and the “LAPT1 Vmax” value (LAPT1 [13]; STIB 247WT procyclics) was 0.65 ± 0.17 pmol/10^7 cells/s. The Km (LAPT1 [13]; STIB 247MR procyclics) was 56 ± 19 µM, the Km (LAPT1 [13]; STIB 247WT procyclics) was 49 ± 19 µM and the “Resistance relative to parental line” value [3] was 74 fold. The IC50 (HAPT1 [14]) was 0.06 ± 0.017 µM, the “Reduction of [3H]pentamidine uptake” value (HAPT1 [14]; 50 nM [3H]pentamidine, B48 compared with TbAT1-KO control) was 15.5 fold and the “Increase of [3H]pentamidine uptake on expression of TbAQP2” value (HAPT1 [14]; 50 nM pentamidine, B48 + TbAQP2 vs B48) was 27.7 fold. For the same compound, the Susceptibility (T. b. brucei) was “+++ and +/− and ++ and −”.
With N=C(N)c1ccc(OCCCOc2ccc(C(=N)N)cc2)cc1 [propamidine] the Ki (HAPT1 [6]) was 14 ± 2 µM, the Ki (TbAQP2 [5]) was 8.1 ± 0.8 µM and the “IC50, inhibition of [3H]pentamidine uptake” value (LAPT1 [10]; aqp2 null cells, 30 nM [3H]pentamidine, 1 mM adenosine) was “insensitive”. The Ki (HAPT1 [12]) was 22 ± 6 µM, the Ki (HAPT1 [15]; TbAT1-KO bloodstream forms, ref Matovu et al. 14) was 13 ± 3 µM and the Ki (HAPT1 [15]; WT s427 bloodstream forms, ref De Koning 17) was 4.6 ± 0.7 µM. It also gave a Ki (HAPT1 [14]) of 15.2 ± 1.6 µM.
For Nc1ncnc2c1ccn2[C@@H]1O[C@H](CO)[C@@H](O)[C@H]1O [tubercidin, 7-deazaadenosine], the “Increase in susceptibility” value ([1]; P < 0.001) was over 20 fold, the EC50 ([1]; s427 WT, read-out: EC50) was 0.23 ± 0.03 µM and the EC50 ([1]; tbat1−/− strain, read-out: EC50) was 2.65 ± 0.23 µM. It also gave a Decrease in susceptibility ([1]; tbat1−/− strain relative to s427 WT) of 10 fold.
Work on HAPT1 (Trypanosoma brucei brucei) yielded a Km ([16]; other: B48/AQP2 bloodstream forms) of 0.046 ± 0.014 µM.
Work on TbAQP2 (Trypanosoma brucei brucei) yielded a Km ([16]; other: L. mexicana/TbAQP2 promastigotes) of 0.055 ± 0.004 µM.
